Data from ChEMBL document CHEMBL1155085, “Propindilactones E-J, Schiartane Nortriterpenoids from Schisandra propinqua var. propinqua” (J Nat Prod, 2008).

How the values were obtained:
Type in all cases: functional, cell-based
A549 = assay: Cytotoxicity against human A549 cells after 72 hrs by sulforhodamine B assay; details: A549, 72 h
HT-29 = assay: Cytotoxicity against human HT29 cells after 72 hrs by sulforhodamine B assay; details: HT-29, 72 h
K562 = assay: Cytotoxicity against human K562 cells after 72 hrs by sulforhodamine B assay; details: K562, 72 h

Measured: IC50

C[C@@H]([C@@H](O)[C@@H]1C[C@@H](C)C(=O)O1)[C@H]1[C@@H](O)[C@H](O)[C@]2(O)[C@@H]3C[C@H]4C(C)(C)O[C@@H]5CC(=O)O[C@@]54CC[C@@]3(O)CC[C@]12C [PRPINDILACETONES H]
> 100 µM: all assays above

C[C@@H]([C@@H](O)[C@@H]1C[C@@H](C)C(=O)O1)[C@H]1C[C@H](O)[C@]2(O)[C@@H]3C[C@H]4C(C)(C)O[C@@H]5CC(=O)O[C@@]54CC[C@@]3(O)CC[C@]12C [PRPINDILACETONES I]
> 100 µM: all assays above

CC(=O)O[C@@H]1C[C@]2(O)CC[C@]34OC(=O)C[C@H]3OC(C)(C)[C@@H]4C[C@H]2[C@]23O[C@H]2C[C@H]([C@@H](C)[C@H]2CC=C(C)C(=O)O2)[C@@]13C [PRPINDILACETONES J]
> 100 µM: all assays above
